Data: patent US6774220B1, “Compounds having lectinic properties and their biological applications” (Association pour le Développement de la Biothérapie …, priority 1995, dated 2004)

Key:
TG-180 tumour cells = experiment: Antitumour action on grafted TG-180 ascitic tumour; conditions: for anti-tumour effect (in words): TG-180 graft in mice
Experimental: In order to test the antitumour capacity of SCL inhibiting sugars, TG-180 tumour cells originating from a tumour resistant to chemical metabolic inhibitors was grafted. In a concentration of 3×10^6 cells injected i.p. into 20 gr Swiss mice, an ascitic tumour is obtained which is detectable in 10 days and kills practically 100% of the animals in 21-25 days.
In parallel series, the various groups of animals were treated 3 days after inoculation, either with a specific sugar (glucosamine, lactose, galacturonate, N.A.N.A., neuramine-lactose) in a 5 to 10% solution, the sugar concentration being 100 mM, or with the same treatment in association with an injection of immuno-stimulant (extract of corynebacterium parvum, Merieux, France), in a dose of 200 g/mouse, or interferon, or both.
4 groups of mice per experiment were used.
They are assessed by the percentage of tumours that appeared on the 10th day, the mean survival time of the animals (MST) in. days, and the final survival (as a percentage).

[1] = tested on: encephalomyocarditis virus (EMC); experiment: Protection of IFN against the encephalomyocarditis virus in Swiss mice, with SCL inhibiting sugars; assay type: in vivo; conditions: EMC virus i.p.
Experimental: The model used is the encephalomyocarditis virus (EMC) which kills mice in practically all cases after rather varying but relatively short incubation periods.
Male mice (average weight: […], aged 8 to 10 weeks) were injected i.p. with sodium galacturonate, glucosamine and N-acetylneuraminic acid (5 to 10% solutions containing 100 mM sugar). 24 hours afterwards, one hundred lethal doses (50%) of EMC virus are injected by the same route. After one hour, murine interferon is injected (in a dose of 20,000 units in 0.5 ml). Table 3 gives the number of animals surviving out of the total tested, the percentage and statistical significance.

T (lympho) cells = experiment: Stimulation over 24 hours of the synthesis of DNA in T (lympho) cells; assay type: cell-based
Experimental: XI Stimulation over 24 hours of the synthesis of DNA in T (lympho) cells

[2] = single agent (+MEM, or IFN in reference group)
[3] = IL2 (100 u) +SCL + inhibitor (NANA 0.75 mmol.; oligo 41-55 3 μγ/ml)

Row | Molecule | Final survival (%) (TG-180 tumour cells; +CP) | Final survival, Number (TG-180 tumour cells; +CP) | MST (mean survival time) (TG-180 tumour cells; +CP) [days] | Tumours on 10th day (%) (TG-180 tumour cells; +CP) | Tumours on 10th day, number (TG-180 tumour cells; +CP) | Final survival (%) (TG-180 tumour cells; +CP +IFN) | Final survival, Number (TG-180 tumour cells; +CP +IFN) | MST (mean survival time) (TG-180 tumour cells; +CP +IFN) [days] | Tumours on 10th day (%) (TG-180 tumour cells; +CP +IFN) | Tumours on 10th day, number (TG-180 tumour cells; +CP +IFN) | Final survival (%) (TG-180 tumour cells; +IFN) | Final survival, Number (TG-180 tumour cells; +IFN) | MST (mean survival time) (TG-180 tumour cells; +IFN) [days] | Tumours on 10th day (%) (TG-180 tumour cells; +IFN) | Tumours on 10th day, number (TG-180 tumour cells; +IFN) | Final survival (%) (TG-180 tumour cells; agent alone) | Final survival, Number (TG-180 tumour cells; agent alone) | MST (mean survival time) (TG-180 tumour cells; agent alone) [days] | Tumours on 10th day (%) (TG-180 tumour cells; agent alone) | Tumours on 10th day, number (TG-180 tumour cells; agent alone) | further results
1 | NCCCC(=O)O [GABA, gamma aminobutyric acid] | (53) % | 24 | 68 ± 11 | 55 | 25 | (56) % | 17 | 70 ± 13 | 23% | 7 | (24) % | 11 | 43 ± 10 | 42 | 19 | (13) % | 4 | 35 ± 9 | 46 | 14 | anti-tumour effect (in words) (TG-180 tumour cells): inhibit oncogenesis significantly
2 | N[C@H]1C(O)O[C@H](CO)[C@@H](O)[C@@H]1O (stereo partly drawn) [Glucosamine, glucosamine] | (53) % | 40 | 67 ± 8 | 34 | 26 | (58) % | 35 | 70 ± 9 | 28% | 17 | (17) % | 8 | 39 ± 9 | 13 | 6 | (6) % | 1 | 28 ± 6 | 20 | 3 | number of animals surviving out of the total number tested [1, 2]: 1/30; percentage surviving [1, 2]: 3%; number of animals surviving out of the total number tested ([1]; sugar +IFN (20,000 units)): 14/45b; percentage surviving ([1]; sugar +IFN (20,000 units)): 31%; Final survival (%) (TG-180 tumour cells; +CP, listed as glucosamine): 53%
3 | OC[C@H]1O[C@@H](O[C@H]2[C@H](O)[C@@H](O)C(O)O[C@@H]2CO)[C@H](O)[C@@H](O)[C@H]1O (stereo partly drawn) [Lactose, lactose] | (46) % | 14 | 82 ± 13 | 10 | 3 | (64) % | 29 | 75 ± 10 | 13% | 6 | (13) % | 6 | 64 ± 9 | 20 | 9 | (3) % | 1 | 26 ± 6 | 36 | 11 | Final survival (%) (TG-180 tumour cells; +CP, listed as lactose): 43%
4 | CC(=O)N[C@H]1C(O)O[C@H](CO)[C@@H](O)[C@@H]1O (stereo partly drawn) [N-acetylglucosamine] | – | – | – | – | – | – | – | – | – | – | – | – | – | – | – | – | – | – | – | – | anti-tumour effect (in words) (TG-180 tumour cells): comparable anti-tumour effects
5 | O=C[C@H](O)[C@@H](O)[C@@H](O)[C@H](O)C(=O)[O-].[Na+] [Na galacturonate, sodium galacturonate] | (20) % | 3 | 42 ± 16 | 13 | 2 | (73) % | 11 | 81 ± 17 | 6% | 1 | (13) % | 2 | 34 ± 15 | 40 | 6 | (6) % | 1 | 31 ± 10 | 20 | 3 | number of animals surviving out of the total number tested [1, 2]: 6/75; percentage surviving [1, 2]: 8%; number of animals surviving out of the total number tested ([1]; sugar +IFN (20,000 units)): 22/90a; percentage surviving ([1]; sugar +IFN (20,000 units)): 24%
6 | O=C([O-])C1OC(O)C(O)C(O)C1O.[Na+] (stereo not drawn) [Na glucuronate, reference compound] | – | – | – | – | – | – | – | – | – | – | – | – | – | – | – | – | – | – | – | – | number of animals surviving out of the total number tested [1, 2]: 6/45; percentage surviving [1, 2]: 13%; number of animals surviving out of the total number tested ([1]; sugar +IFN (20,000 units)): 5/45; percentage surviving ([1]; sugar +IFN (20,000 units)): 11%; anti-tumour effect (in words) (TG-180 tumour cells): comparable anti-tumour effects
7 | CCC(N)C(=O)O (stereo not drawn) [alphaaminobut., alpha aminobutyric acid] | (23) % | 7 | 55 ± 14 | 60 | 18 | (47) % | 14 | 62 ± 14 | 23% | 7 | (0) % | 0 | 25 ± 2 | 30 | 9 | (0) % | 0 | 26 ± 1 | 63 | 19 | –
8 | CC(C)(N)C(=O)O [alphaaminoiso., alpha aminoisobutyric acid] | (43) % | 13 | 66 ± 13 | 46 | 14 | (47) % | 14 | 64 ± 13 | 4d % | 12 | (13) % | 4 | 31 ± 10 | 50 | 15 | (7) % | 2 | 31 ± 7 | 20 | 6 | anti-tumour effect (in words) (TG-180 tumour cells): inhibit oncogenesis significantly
9 | oligo 41-55: peptide SEQ ID NO: 5, position 41 to 55 in SEQ ID NO: 1 (GLGASRPRVAVRSAY; listed as Homo sapiens) | – | – | – | – | – | – | – | – | – | – | – | – | – | – | – | – | – | – | – | – | effect on the stimulation of DNA synthesis by SCL (in words) (T (lympho) cells; 24 hours): inhibited; synthesis of DNA, EXP. N° 1 (T (lympho) cells; [3]): 4,674 ± 832.52; synthesis of DNA, EXP. N° 2 (T (lympho) cells; [3]): 23,184 ± 2494
10 | SCL: SCL excreted in the H-1 medium by PBMC over 24 hours maintained without serum (protein) SIHFSSPVFTSRSAAFSGRGAQVRLSSARPGGLGSSSLYGLGASRPRVAVRSAYGGPVGAGIREVTINQSLLAPLRLGADPFSQRVRQEESEQIKTLNNKFASFIDKVRFLEQQNKLLETKWTLLQEQKSAKSSRLPDIFEAQIAGLRGQLEAMQVDGGRLEQGLRTMQDVVEDFKNKYEDEINRRTAAENEFVVLKKDVDAAYMSKVELEAKVDALNDEINFLRTLNETELTELQSQISDTSVVLSMDNSRSLDLDGIIAEVKAQYEEMAKCSRAEAEAWYQTKFETLQAQAGKHGDDLRNTRNEISEMNRAIQRLQAEIDNIKNQRAKLEAAIAEAEERGELALKDARAKQEELEAALQRAKQDMARQLREYQELMSVKLALDIEIATYRKLLEGEESRLAGDGVGAANISVMNSTGGSSSGGGIGLTLGGTMGSNALSFSSSAGPGLLKAYSIRTASASRRSTRD | – | – | – | – | – | – | – | – | – | – | – | – | – | – | – | – | – | – | – | – | effect on synthesis of DNA (in words) (T (lympho) cells; 24 hours): stimulates the synthesis of DNA; synthesis of DNA, EXP. N° 1 (T (lympho) cells; IL2 (100 u) +SCL, 24 hours): 6,167 ± 483.66; synthesis of DNA, EXP. N° 2 (T (lympho) cells; IL2 (100 u) +SCL, 24 hours): 35,438 ± 10.370
